Results taken from patent US6756368B1, “Use of cobalt chelates for treating or preventing virus infection” (The Trustees of Columbia University in the City of New York, priority 1999, dated 2004).

What was measured:
HSV = conditions: cited from earlier work
HSV-1 = assay: Fractionation and in situ localization of virus DNA; format: cell-based, HSV-1 Glasgow strain 17; conditions: 100 μg/ml cycloheximide, 1 hpi

Cc1ccc(C(=O)Nc2ccc(S(=O)(=O)O)c3cc(S(=O)(=O)O)cc(S(=O)(=O)O)c23)cc1NC(=O)c1cccc(NC(=O)Nc2cccc(C(=O)Nc3cc(C(=O)Nc4ccc(S(=O)(=O)O)c5cc(S(=O)(=O)O)cc(S(=O)(=O)O)c45)ccc3C)c2)c1 [Sumarin]
HSV attachment / virus binding (HSV): able to block HSV attachment | cell-to-cell spread of HSV (HSV): able to inhibit cell-to-cell spread

C[C@@H]1C[C@@H]([C@H](O)CC2CC(=O)NC(=O)C2)C(=O)[C@@H](C)C1 [cycloheximide, reference compound]
virus DNA associated with the nuclear fraction versus no drug control (HSV-1): no effect on the amount of virus DNA associated with the nuclear fraction

CCCCCCCCCCCCCCCCCCCCCCO [n-docosanol]
HSV attachment / virus binding (HSV): does not inhibit virus binding | step inhibited instead of binding (HSV): fusion of the virus envelope with the cell's plasma membrane

Heparin
HSV attachment / virus binding (HSV): can block attachment
